The values that follow are results of earlier work, collected in patent US12240810B2, “Chiral-substituted poly-N-vinylpyrrolidinones and complexes with bimetallic nanoclusters and uses thereof in asymmetric oxidation reactions” (Kansas State University Research Foundation, priority 2019, dated 2025).

The structures appear in SMILES notation. In brackets after ≈: the same amount, converted by molar mass.

This series relates to Staphylococcus aureus. To be noted: antibacterial activity, background statement on the natural product.

Consider `CC=CCCCC[C@@]1(O)[C@H](C)C(=O)N2CCC[C@@]21CO` [compound 113, (−)-Penibruguieramine A], for which the MIC value is 6.4 mg/L (≈ 22.7 µM).
